One series deals with INS-1 insulinoma cells. Description: Gene profiling and Q-PCR of cAMP inducible genes in INS-1 cells. Format: cell-based, rat. The note with it: INS-1 cells exposed to FSK. As to the method:
(§1) INS-1 insulinoma cells were cultured in RPMI 1640 (Mediatech) with 10% heat inactivated fetal bovine serum (Sigma), 2 mM glutamine (Mediatech), 1 mM sodium pyruvate (Mediatech), 100 μg/ml penicillin-streptomycin (Mediatech) and 0.05 mM β-mercaptoethanol. HEK 293T cells were cultured in DMEM (Mediatech) with 10% fetal bovine serum and 100 μg/ml penicillin-streptomycin. Forskolin (10 μM), LY294002 (50 μM), and DMOG (1 mM) were added to cells as indicated. Cells were exposed to rapamycin (50 nM) or to cycloheximide (100 μg/ml) overnight. For glucose and Exendin-4 treatments, INS-1 cells were glucose and serum starved for 1 hour, and stimulated with glucose or 2-deoxyglucose (20 mM) with or without Exendin-4 (10 nM). HEK 293T cells were transfected with polyethylenimine (PEI) and INS-1 cells with Lipofectamine2000 (Invitrogen; 11668-019). For HIF-1α translational reporter experiment, INS-1 cells were transfected with pLUXHIF1α5′UTR or pLUX control vector (generous gift of John Blenis). After 24 hours, cells were exposed to rapamycin overnight where indicated. After forskolin treatment, cells were harvested for Renilla/firefly luciferase activity. Normalized luciferase activities are shown.
Gene profiling experiments were performed on total RNA from INS-1 cells using an Affymetrix Rat Gene Array as previously described (Zhang et al., 2005).
mRNA levels were quantified by Q-PCR analysis as previously described (Dentin, 2007). Oligonucleotides were designed to target rat gene sequences.

For series [1], the system named is hypoxia-inducible factor (HIF). Description: HRE-luc reporter transient assay in INS-1 cells. Format: cell-based, rat. As to the method: as §1
Plasmids expressing cDNAs for HA-HIF-1α P402A/P564A (18955) were purchased from Addgene. HRE-LUC reporter construct was generously provided by Randall Johnson (UCSD).

Series [2] deals with HIF1α. Description: Immunoblot of HIF1α in INS-1 cells. It counts as cell-based, rat. On the procedure:
(§2) Immunoblot and immunoprecipitation: Immunoblots were performed as described (Dentin et al., 2008). For immunoprecipitations, cell lysates were incubated with primary antibody and 25 μl of a 50% slurry of protein G agarose beads for 4 hours with rotation at 4° C. Immunoprecipitates were washed with lysis buffer and denatured by boiling in 20 μl SDS sample buffer.
as §1, with “Normalized luciferase activities are shown.” left out
In general terms: In western blotting, separated proteins are transferred to a membrane and probed.

Series [3] has as its system HIF1α. Description: Immunoblot of HIF1α in primary hepatocytes. The note with it: cultured primary hepatocytes. Format: cell-based.
The next series has as its system HIF. Description: HRE-luc reporter in primary hepatocytes. The note with it: cultured primary hepatocytes. Format: cell-based. From the text:
Plasmids expressing cDNAs for HA-HIF-1α […]/P564A (18955) were purchased from Addgene. HRE-LUC reporter construct was generously provided by Randall Johnson (UCSD).

The conditions of series [4]: cited from earlier work.
The target of the next series is human GLP-1 receptor (Homo sapiens, UniProt P43220). The note with it: greater affinity than native GLP-1; cited from earlier work.
The conditions of series [5]: mildly hyperglycaemic patients with Type 2 diabetes on metformin; cited from earlier work.
In another series the test system is mTORC1. Description: Immunoblot of phospho-S6 in INS-1 cells. The conditions noted are these: co-incubation of mTOR inhibitor with FSK. It counts as cell-based, rat. As to the method:
as §2
as §1, with “After 24 hours, cells were exposed to rapamycin overnight where indicated. After forskolin treatment, cells were harvested for Renilla/firefly luciferase activity. Normalized luciferase activities are shown.” left out

The subject of the next series is INS-1 cells. Description: Cell size determination in INS-1 cells. The note with it: co-incubation with FSK. It counts as cell-based, rat. As to the method:
For cell size measurements, INS-1 cells were plated on 6 cm dishes, treated as indicated, trypsinized and resuspended in PBS. Cell diameter was measured using a particle size counter.

[6] abbreviates: plus protein synthesis inhibitor.
The mark [7] stands for this setting: prolonged exposure, particularly under high glucose (20 mM).

Like-named read-outs stand apart in the source and are kept apart here.

The term half-life denotes the time in which the quantity being followed falls by half.

Sequence of human GLP-1 receptor (P43220 24-463): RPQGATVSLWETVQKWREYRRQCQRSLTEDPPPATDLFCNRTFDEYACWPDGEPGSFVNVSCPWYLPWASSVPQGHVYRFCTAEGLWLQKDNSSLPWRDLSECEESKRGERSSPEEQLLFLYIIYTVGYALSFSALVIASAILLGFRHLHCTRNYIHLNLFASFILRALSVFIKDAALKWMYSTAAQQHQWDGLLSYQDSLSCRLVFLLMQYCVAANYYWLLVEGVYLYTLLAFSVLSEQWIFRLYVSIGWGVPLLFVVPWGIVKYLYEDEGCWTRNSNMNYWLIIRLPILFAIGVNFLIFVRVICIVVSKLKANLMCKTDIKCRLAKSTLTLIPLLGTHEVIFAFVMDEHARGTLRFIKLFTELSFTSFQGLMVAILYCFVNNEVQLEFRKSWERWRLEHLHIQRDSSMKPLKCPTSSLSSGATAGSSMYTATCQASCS

Turning to `C[C@@H]1C[C@@H]([C@H](O)CC2CC(=O)NC(=O)C2)C(=O)[C@@H](C)C1` [cycloheximide], in the series on INS-1 insulinoma cells (setting [6]), the “expression of CREB target genes” value is “enhanced” and the “expression of late phase genes like HMOX1 by FSK” value is recorded as “reduced”.
Regarding `CO[C@H]1C[C@@H]2CC[C@@H](C)[C@@](O)(O2)C(=O)C(=O)N2CCCC[C@H]2C(=O)O[C@H]([C@H](C)C[C@@H]2CC[C@@H](O)[C@H](OC)C2)CC(=O)[C@H](C)/C=C(\C)[C@@H](O)[C@@H](OC)C(=O)[C@H](C)C[C@H](C)/C=C/C=C/C=C/1C` [rapamycin], the “induction of CREB target genes such as NR4A2” value with INS-1 insulinoma cells (plus rapamycin) is listed as “no effect”.
In the case of `CC(C)Cn1c(=O)n(C)c(=O)c2[nH]cnc21` [IBMX], the HRE-luc reporter activity result in series [1] (time not stated) is given as “increased”.
Exendin-4: GLP-1 agonist: in series [1] (setting [7]), the HRE-luc reporter activity entry is “increased”. In the series on HIF1α [2] (setting [7]), the HIF1α protein accumulation result is on record as “increased”.
`COC(=O)CNC(=O)C(=O)OC` [DMOG, Dimethyloxalyl Glycine]: the HIF1α protein levels entry in the series with HIF1α [2] (agent alone) is reported as “increased”. Besides, the HIF1α accumulation result in the series with HIF1α [3] is recorded as “triggered”. In addition, in the series with HIF, the HRE-luc reporter activation entry was “triggered”.
With `C=C[C@@]1(C)CC(=O)[C@]2(O)[C@@]3(C)[C@@H](O)CCC(C)(C)[C@@H]3[C@H](O)[C@H](OC(C)=O)[C@@]2(C)O1` [FSK, Forskolin], in the series with HIF1α [3], the HIF1α accumulation entry is recorded as “no effect”. In addition, the HRE-luc reporter activation result with HIF was “no effect”.
Consider Albiglutide, for which the half-life result in series [4] (after administration) is listed as “four to seven”.
Regarding Lixisenatide, the half-life in series [4] (in vivo) is 2.5 to 4 h. Also, the “affinity for the human GLP-1 receptor compared with native GLP-1” value on human GLP-1 receptor was “approximately 4 fold”. In series [5], the glycaemic control entry is recorded as “significantly improve”.
Consider `O=S(=O)(NCCNC/C=C/c1ccc(Br)cc1)c1cccc2cnccc12` [H89], for which, in [1] (co-incubation with inhibitor), the “induction of the HRE-luc reporter by FSK” value is “blocked” and the “induction of the HRE-luc reporter by IBMX” value is recorded as “blocked”.
`CC(C)n1nc(-c2cc3cc(O)ccc3[nH]2)c2c(N)ncnc21` [PP242]: in the series with HIF1α [2] (co-incubation of mTOR inhibitor with FSK), the “effects of FSK on HIF1α induction” value is reported as “blocked”. The “effects of FSK on S6 phosphorylation” value with mTORC1 was “blocked”. The “effects of FSK on cell size” value with INS-1 cells was “blocked”.

These data come from patent US20130143800A1, “COMBINATION THERAPIES TO TREAT DIABETES” (RESEARCH DEVELOPMENT FOUNDATION, priority 2011, published 2013).
